≈ marks a conversion by molar mass, not a printed value. Like-named read-outs stand apart in the source and are kept apart here.
How the values were obtained:
[1] = test system: Vancomycin resistant E. faecalis NR-31972 (VRE); experiment: Antibacterial MIC assay, serial dilution; type: cell-based, Enterococcus faecalis; conditions: for Selectivity index (CC50/MIC) VRE NR-31972: CC50 Vero cells / MIC; for MIC: Enterococcus faecalis, VRE, 24 h, read-out: MIC Vancomycin resistant E. faecalis NR-31972 (VRE)
Method: (§1) Media and solutions were autoclaved or sterile filtered prior to use and mani pulations were carri ed out in a laminar flow hood. Antibacterial t esting was performed in polypropylene 96-well flat bottom plates. The minimal inhibitory concentration of blasticidin S (1) hydrochloride, methyl ester (3) trihydrochloride, P10 (2) tri-T FA , phenet hyl amide (4) tri -T FA , an d blastimidines M 19– 22, A, 29–32, P 37–40, and C 43–46 (salt forms as described in the te xt) were assessed against Staphylococcus aureus ΔNorA, S. aureus ATCC 6538P, methicillin-resistant S. aureus (MRSA) ATCC 43300, Enterococcus faecalis ATCC 29212, vancomycin- resistant Enterococcus, Klebsiella pneumoniae ATCC 29665, Pseudomonas aeruginosa,and Acinetobacter baumannii ATCC 17978 using serial dilutions. Doxycycline (Gold Bio) as a positive control and the vehicle as a negative control. Stock solutions of each compound were prepared at 2.56 mg/mL in 50% DMSO/water and serially diluted in 50% DMSO/water to create master plates. From the master plates, 10 μ L o f each dilution was applied to test plates using a Bravo automated liquid transfer system (Agilent).
(§2) Bacteria previously grown overnight (37 °C, 120–200 RPM), in LB broth were diluted to an OD600 of 0.05 in cation-adjusted Mueller-Hinton broth (CAMHB), grown to an OD600 of ~0.5, and diluted to an OD600 of 0.004 in CAMHB . These diluted cultures were applied to the test plates (190 μL per test well) resulting in final concentrations of the test compounds of 128–1 μg/ m L.
(§3) Growth controls (wells with inoculated media but no vehicle or test compounds) were included to assess any potential toxicity from the vehicle. Th e plates were in cubated at 37 °C for 16–18 h, except fo r VRE and E. faecalis, which w ere in cub ated at 37 °C fo r 24 h. Inh ibition was determined by measuring the optical density at 600 nm (OD60 0) with a Cytation 3 pl ate read er (BioTek). The optical density measurem ents were no rmalized to the positive and negative controls and the vehicle and growth controls were compared and found to b e indistinguishable, indicating no toxicity from […]
(§4) the vehicle used. The MIC was the lowest concentration that inhibited >90% of growth. Two biological replicates were performed in duplicate. MIC values are reported as a range from […]

[2] = test system: Escherichia coli BAA-2452; experiment: Antibacterial MIC assay, serial dilution; type: cell-based; conditions: BAA2452, read-out: MIC Escherichia coli BAA-2452
[3] = test system: Vancomycin resistant Enterococcus faecium NR-31909 (VRE); experiment: Antibacterial MIC assay, serial dilution; type: cell-based; conditions: for Selectivity index (CC50/MIC) VRE NR-31909: CC50 Vero cells / MIC; for MIC: Enterococcus faecium, VRE, 24 h, read-out: MIC Vancomycin resistant Enterococcus faecium NR-31909 (VRE)
Method: as §1, §2, §3, §4

Pseudomonas aeruginosa = experiment: Antibacterial MIC assay, serial dilution; type: cell-based; conditions: for Selectivity index (CC50/MIC) P. aeruginosa: CC50 Vero cells / MIC; for MIC: Pseudomonas aeruginosa, range from biological replicates, read-out: MIC P. aeruginosa
Method: as §1, §2, §3, §4

[4] = test system: Enterococcus faecalis ATCC 29212; experiment: Antibacterial MIC assay, serial dilution; type: cell-based; conditions: for Selectivity index (CC50/MIC) E. faecalis 29212: CC50 Vero cells / MIC; for MIC: Enterococcus faecalis, ATCC 29112 / ATCC 29212, 24 h, read-out: MIC E. faecalis ATCC 29112
Method: as §1, §2, §3, §4

[5] = test system: Acinetobacter baumannii ATCC 17978; experiment: Antibacterial MIC assay, serial dilution; type: cell-based; conditions: ATCC17978, range from biological replicates
Method: as §1, §2, §3, §4

[6] = test system: Klebsiella pneumoniae ATCC 29665; experiment: Antibacterial MIC assay, serial dilution; type: cell-based; conditions: for Selectivity index (CC50/MIC) K. pneumoniae: CC50 Vero cells / MIC; for MIC: Klebsiella pneumoniae, ATCC29665, range from biological replicates, read-out: MIC K. pneumoniae ATCC-29665
Method: as §1, §2, §3, §4

[7] = test system: Methicillin resistant S. aureus (MRSA) USA300; experiment: Antibacterial MIC assay, serial dilution; type: cell-based, Staphylococcus aureus; conditions: for Selectivity index (CC50/MIC) MRSA USA300: CC50 Vero cells / MIC; for MIC: Staphylococcus aureus, read-out: MIC Methicillin resistant S. aureus (MRSA) USA300
S. aureus ATCC 6538P = experiment: Antibacterial MIC assay, serial dilution; type: cell-based, Staphylococcus aureus; conditions: for Selectivity index (CC50/MIC) S. aureus 6538P: CC50 Vero cells / MIC; for MIC: Staphylococcus aureus, ATCC 6538P / ATCC 6539P, read-out: MIC S. aureus ATCC 6539P
Method: as §1, §2, §3, §4

S. aureus ΔNorA = experiment: Antibacterial MIC assay, serial dilution; type: cell-based, Staphylococcus aureus; conditions: for Selectivity index (CC50/MIC) S. aureus ΔNorA: CC50 Vero cells / MIC; for MIC: Staphylococcus aureus, read-out: MIC S. aureus ∆NorA
Method: as §1, §2, §3, §4

MRSA ATCC 43300 = experiment: Antibacterial MIC assay, serial dilution; type: cell-based, Staphylococcus aureus; conditions: for Selectivity index (CC50/MIC) MRSA 43300: CC50 Vero cells / MIC; for MIC: Staphylococcus aureus, read-out: MIC MRSA ATCC 43300
Method: as §1, §2, §3, §4

[8] = test system: Methicillin resistant Staphylococcus epidermidis (MRSE) ATCC 35984 NRS101; experiment: Antibacterial MIC assay, serial dilution; type: cell-based; conditions: for Selectivity index (CC50/MIC) MRSE 35984: CC50 Vero cells / MIC; for MIC: Staphylococcus epidermidis, read-out: MIC Methicillin resistant Staphylococcus epidermidis (MRSE) ATCC 35984 NRS101
[9] = Cytotoxicity assay (MTS/PMS); type: cell-based; conditions: monkey, 24 h treatment, MTS/PMS, average of three biological replicates, read-out: CC50 against Vero cells
Method: The potential cytotoxic eff ect of the test compounds was investigated using Vero cells (monkey kidney epitheli al cells) following est ablished protocols.3 Briefly, Vero cells were plated into 96-well plates supplemented with Dulbecco's Modified Eagle Medium (DMEM) containing 10% fetal bovine serum (FBS). The cells were placed in a humidified 37 °C environment for incubation with 5% CO₂ for 24 h to allow proper adherence and growth. Following the incubation period, the culture medium was replaced with fresh DMEM containing serial dilutions of the test compounds, while the v ehicle alon e w as used as a negative control. The treated cells were incubated for an additional 24 h. To assess cell viability, the MTS/PMS reagent was added to each well and incubat ed for 4 h. A microplate reader (S ynergy H1, BioTek, USA) was used to m easure absorbance at 490 nm. Al l experiments wer e cond ucted usingthree biologi cal replicates .
Ta b l e S2. CC50 valuesa (µg/mL) against Vero cells […]
aValues at which the cell viability (normalized to vehicle control) was 50%. […]

[10] = Vero cells (monkey kidney epithelial cells)

CNc1ccc(C(=O)Nc2ccn([C@H]3C=C[C@H](NC(=O)C[C@@H](N)CCN(C)C(=N)N)[C@@H](C(N)=O)O3)c(=O)n2)cc1 [Blastimidine A3]
Selectivity index (CC50/MIC) VRE NR-31972 [1]: 0.8
MIC [1]: 32 µg/mL (≈ 57.7 µM)
MIC [2]: 32 µg/mL (≈ 57.7 µM)
Selectivity index (CC50/MIC) VRE NR-31909 [3]: 2.0
MIC [3]: 8 to 16 µg/mL (≈ 14.4 to 28.8 µM)
Selectivity index (CC50/MIC) P. aeruginosa (Pseudomonas aeruginosa): <0.2
MIC (Pseudomonas aeruginosa): > 128 µg/mL
Selectivity index (CC50/MIC) E. faecalis 29212 [4]: 1.5
MIC [4]: 16 µg/mL (≈ 28.8 µM)
MIC [5]: > 128 µg/mL
Selectivity index (CC50/MIC) K. pneumoniae [6]: 0.8
MIC [6]: 32 µg/mL (≈ 57.7 µM)
Selectivity index (CC50/MIC) MRSA USA300 [7]: 3.0
MIC [7]: 8 µg/mL (≈ 14.4 µM)
Selectivity index (CC50/MIC) S. aureus 6538P (S. aureus ATCC 6538P): 2.3
MIC (S. aureus ATCC 6538P): 8 to 16 µg/mL (≈ 14.4 to 28.8 µM)
Selectivity index (CC50/MIC) S. aureus ΔNorA (S. aureus ΔNorA): 1.5
MIC (S. aureus ΔNorA): 16 µg/mL (≈ 28.8 µM)
Selectivity index (CC50/MIC) MRSA 43300 (MRSA ATCC 43300): 1.5
MIC (MRSA ATCC 43300): 16 µg/mL (≈ 28.8 µM)
Selectivity index (CC50/MIC) MRSE 35984 [8]: 1.5
MIC [8]: 16 µg/mL (≈ 28.8 µM)
CC50 at 24 h [9, 10]: 24 µg/mL (≈ 43.3 µM)

CN(CC[C@H](N)CC(=O)N[C@H]1C=C[C@H](n2ccc(N)nc2=O)O[C@@H]1C(=O)O)C(=N)N [Blastimidine C1, blasticidin S]
Selectivity index (CC50/MIC) VRE NR-31972 [1]: 0.1
MIC [1]: 128 µg/mL (≈ 303 µM)
MIC [2]: 64 µg/mL (≈ 151 µM)
Selectivity index (CC50/MIC) VRE NR-31909 [3]: 0.1
MIC [3]: 128 µg/mL (≈ 303 µM)
Selectivity index (CC50/MIC) P. aeruginosa (Pseudomonas aeruginosa): <0.1
MIC (Pseudomonas aeruginosa): > 128 µg/mL
Selectivity index (CC50/MIC) E. faecalis 29212 [4]: 0.6
MIC [4]: 32 µg/mL (≈ 75.7 µM)
MIC [5]: > 128 µg/mL
Selectivity index (CC50/MIC) K. pneumoniae [6]: 0.1
MIC [6]: 128 µg/mL (≈ 303 µM)
Selectivity index (CC50/MIC) MRSA USA300 [7]: 0.1
MIC [7]: 128 µg/mL (≈ 303 µM)
Selectivity index (CC50/MIC) S. aureus 6538P (S. aureus ATCC 6538P): <0.1
MIC (S. aureus ATCC 6538P): > 128 µg/mL
Selectivity index (CC50/MIC) S. aureus ΔNorA (S. aureus ΔNorA): <0.1
MIC (S. aureus ΔNorA): > 128 µg/mL
Selectivity index (CC50/MIC) MRSA 43300 (MRSA ATCC 43300): <0.1
MIC (MRSA ATCC 43300): > 128 µg/mL
Selectivity index (CC50/MIC) MRSE 35984 [8]: <0.1
MIC [8]: > 128 µg/mL
CC50 at 24 h [9]: 18 µg/mL (≈ 42.6 µM)

CN(CC[C@H](N)CC(=O)N[C@H]1C=C[C@H](n2ccc(N)nc2=O)O[C@@H]1C(N)=O)C(=N)N [Blastimidine A1, P10, reference compound]
Selectivity index (CC50/MIC) VRE NR-31972 [1]: 0.1
MIC [1]: 64 µg/mL (≈ 152 µM)
MIC [2]: 16 µg/mL (≈ 38 µM)
Selectivity index (CC50/MIC) VRE NR-31909 [3]: 0.2
MIC [3]: 32 µg/mL (≈ 75.9 µM)
Selectivity index (CC50/MIC) P. aeruginosa (Pseudomonas aeruginosa): 0.1
MIC (Pseudomonas aeruginosa): 64 µg/mL (≈ 152 µM)
Selectivity index (CC50/MIC) E. faecalis 29212 [4]: 0.2
MIC [4]: 32 µg/mL (≈ 75.9 µM)
MIC [5]: 32 µg/mL (≈ 75.9 µM)
Selectivity index (CC50/MIC) K. pneumoniae [6]: 0.2
MIC [6]: 32 µg/mL (≈ 75.9 µM)
Selectivity index (CC50/MIC) MRSA USA300 [7]: 0.4
MIC [7]: 16 µg/mL (≈ 38 µM)
Selectivity index (CC50/MIC) S. aureus 6538P (S. aureus ATCC 6538P): 0.2
MIC (S. aureus ATCC 6538P): 32 µg/mL (≈ 75.9 µM)
Selectivity index (CC50/MIC) S. aureus ΔNorA (S. aureus ΔNorA): 0.1
MIC (S. aureus ΔNorA): 128 µg/mL (≈ 304 µM)
Selectivity index (CC50/MIC) MRSA 43300 (MRSA ATCC 43300): 0.2
MIC (MRSA ATCC 43300): 32 µg/mL (≈ 75.9 µM)
Selectivity index (CC50/MIC) MRSE 35984 [8]: 0.2
MIC [8]: 32 µg/mL (≈ 75.9 µM)
CC50 at 24 h [9, 10]: 7 µg/mL (≈ 16.6 µM)
